Tested on: primary astrocytes
Test: Activation of cultured primary astrocytes, mRNA expression
Assay type: cell-based, mouse
Conditions: for transcriptional response of astrocytes to LPS/IFNγ: 1 h pre-treatment (PDMP 25 μM; LacCer 10 μM), LPS 100 ng/ml and IFNγ 100 Units/ml, 6 h
Method: FIGS. 3a-m. LacCer produced by B4GALT6 acts in an autocrine manner to boost astrocyte activation. Cultured astrocytes were pre-treated for 1 h with PDMP (25 μM), LacCer (10 μM), both (LacCer+PDMP), or vehicle (vehicle), followed by activation with lipopolysaccharide (100 ng/ml) and Interferon-γ (100 Units/ml) (LPS/IFNγ) or left un-treated (control). (a) Heatmap depicting mRNA expression, as detected by Nanostring nCounter analysis, in astrocytes stimulated with LPS/IFNγ. Representative data of three independent experiments. (b) Histogram presentation of the normalized gene expression presented in (a), statistical analysis by one-way ANOVA followed by Tukey post-hoc analysis. (c-i) The expression of B4galt5 (shB4galt5), B4galt6 (shB4galt6) or non-targeting shRNA (ShControl) in C8-D30 astrocytes was knocked-down using verified shRNA (n≥4). (c) qRT analysis of B4galt5 and B4galt6 mRNA expression. (d-f) astrocytes were activated as in (a) and mRNA expression for (d) H2-Aa, (e) Ccl5 and (f) Cxcl10 was determined; expression is presented relative to house keeping gene (Gapdh) (n≥4). (g) Schematic map of the astrocyte-specific shRNA lentiviral vector. […] NOD mice were injected i.c.v. with 1×10^7 IU of shControl, shB4galt5 or shB4galt6 lentivirus, at day 35 after EAE induction (progressive phase). n=10 mice per group (h, i) 10 days after i.c.v. injection experiment was terminated and (h) b4galt5 and b4galt6 expression levels were determined by qPCR in astrocytes isolated from naïve or EAE NOD mice; expression normalized to gapdh and presented relative to that of cells from naïve mice. Representative data of two independent experiments, Statistical analysis by one-way ANOVA, followed by Tukey post-hoc analysis. (i) LacCer levels were quantified of in the CNS of naïve or EAE NOD mice treated as shown in (j). Statistical analysis by one-way ANOVA, followed by Tukey post-hoc analysis. (j) EAE clinical scores. Representative data of two independent experiments. Statistical analysis as in (FIG. 1a). (k) Cultured primary astrocytes were pre-treated for 1 h with PDMP (25 μM), LacCer (10 μM), both (LacCer+PDMP), or vehicle control (vehicle), followed by activation with LPS/IFNγ for 45 min, or left un-treated (control, Con). IRF-1 and Lamin B expression in the nuclear fraction analyzed by western blot and the degree of IRF-1 translocation to the nucleus was assessed by the ratio between the expression of IRF-1 and Lamin-B in the nuclear fractions following densitometric quantification on four independent experiments (right panel). Statistical analysis by one-way ANOVA, followed by Tukey post-hoc analysis. (l) ChIP analysis of the interaction of NF-κB, and IRF-1 with the) nos2 promoter in primary cultured astrocytes. Experimental design and data analysis as in (FIG. 4c). Data from two independent experiments (m) qPCR analysis of the expression of nos2, csf2, ccl2, ccl5, il6, and tlr2 in astrocyte cultures established from WT or IRF-1 deficient (IRF-1 KO) mice, pre-treated with LacCer or vehicle, and activated with LPS/IFNγ. […]
FIGS. 14a-g. […] (a) Cultured astrocytes were pre-treated for 1 h with PDMP (25 μM), LacCer (10 μM), both (LacCer+PDMP), or vehicle control (vehicle), followed by activation with LPS/IFNγ for 6 h, or left un-treated (control, Con). mRNA expression was analyzed 6 h following activation. qPCR analysis of the expression of cc/5, csf2, nos2, il6, H2-Aa, and tlr2 presented relative to gapdh. […]

| Compound | transcriptional response of astrocytes to LPS/IFNγ | h2-Aa, ccl5 and cxcl10 expression in B4GALT6 knocked-down astrocytes (astrocytes with shB4galt6, PDMP pre-treatment, LPS/IFNγ 6 h) | astrocyte activation, LacCer added to PDMP (LacCer 10 μM + PDMP 25 μM, LPS/IFNγ) |
| --- | --- | --- | --- |
| CCCCCCCCCC(=O)N[C@H](CN1CCOCC1)[C@H](O)c1ccccc1 [PDMP, D-threo-1-phenyl-2-decanoylamino-3-morpholino-1-propanol] | suppressed the transcriptional response | did not further suppress | – |
| lactosylceramide [LacCer] | boosted the response | – | overcame the suppressive effects of PDMP |
